Results reported in patent US20120022048A1, “Anti-proliferative substituted pyrazolo[3,4-d]pyrimidines derivatives (SPP) to inhibit immune activation, virus replication and tumor growth” (priority 2010, published 2012).
“Also recorded” adds a separate entry of the source. Like-named read-outs stand apart in the source and are kept apart here.

How the values were obtained:
HIV-1 NL 4.3 [1] = assay: HIV-1 replication in quiescent CD4 T cells (p24 Ag ELISA); assay type: cell-based; conditions: for inhibition at 10 µM: Human immunodeficiency virus 1, CD4+ T, read-out: reduction of HIV-1 p24 production / inhibition of HIV replication compared to untreated control; for anti-HIV activity in quiescent cells (in words) / HIV quiescent cells (percentage p24 compared to the untreated control): SPPs 10 μM; for anti-HIV activity in quiescent cells (in words): compared with HU 100 μM, HU+ddI or untreated control; for Antiviral activity in quiescent cells: class symbol, Table 6; for HIV quiescent cells (percentage p24 compared to the untreated control): quiescent CD4 T cells, day 10, HU 100 μM, HU 100 μM+ddI 2 μM
Experimental: Unstimulated (quiescent/resting, day 0 to 5) human CD4 T-lymphocytes, obtained by magnetic bead separation from healthy, normal donors, were infected with HIV-1 NL 4.3. After five days in culture, cells were stimulated with PHA (5 μg/ml) to induce proliferation, and then, at day 7, IL-2 (20 U/ml) was added (stimulated, day 6 to 10). All available compounds were tested at a concentration of 10 μM. HU 100 μM and HU 100 μM+ddI 2 μM were also employed as comparators and the negative control was left untreated. At day 10, cells and supernatants were harvested and HIV-1 p24 Ag was measured by ELISA. HIV replication was expressed as percentage p24 compared to the untreated control.

[2] = tested on: primary human CD4 T-lymphocytes; assay: Cell hyperproliferation in primary T cells (CFSE staining, mitotic index); assay type: cell-based; conditions: for anti-proliferative activity (in words) / mitotic index %: SPPs 10 μM, Imatinib 10 μM; for anti-proliferative activity (in words): compared with HU 100 μM, HU+ddI or untreated control; for Anti-proliferative capacity: class symbol, Table 6; for more anti-proliferative than HU+ddI: 10 μM, spider graph FIG. 3; for decrease/inhibition of cell proliferation compared to not treated control: SPPs and Imatinib 10 μM; for decrease/inhibition of cell proliferation compared to not treated control / mitotic index %: HU 100 μM; for mitotic index %: % of not treated control (100%), day 10
Experimental: We built up an experimental model using primary T cells to study the activity of the compounds on induced hyperproliferation of cells, which is a characteristic of both chronic viral diseases and cancer including HIV and leukemia.
(§1) Unstimulated (quiescent/resting, day 0 to 5) primary human CD4 T-lymphocytes were obtained by magnetic bead separation from healthy, normal donors. After five days in culture, cells were activated with PHA (5 μg/ml) to induce hyperproliferation then, at day 7, IL-2 (20 U/ml) was added (stimulated, day 6 to 10). All available compounds were tested at a concentration of 10 μM. […] At day 10, cells were harvested. Proliferation of T cells, cultured as described above, was studied by staining the cells with carboxyfluorescein diacetate-succinimidyl ester (CFSE) at day 0 (immediately after infection). For data analysis, the mitotic index (M) was used, calculating the sum of mitotic events at each proliferation cycle. To extract a relative number, M was normalized to the total number of cells acquired using the equation M=Σ[(Xn(T)−Xn(T)/2^n)], that gives the number of mitotic events from the experimentally obtained values of the proportion of T cells under each division peak n (Xn) and the total T cells (T). To study the effect of the compounds on apoptosis T cells were cultured as described above and at day 10 cells were stained with Annexin V and 7-AAD, in order to determine the percentage of total apoptotic events.

HIV-1 NL 4.3 [3] = assay: HIV-1 replication in activated T cells (PBMC, p24 Ag ELISA); assay type: cell-based; conditions: for inhibition at 10 µM: Human immunodeficiency virus 1, T-cell, read-out: inhibition of p24 production / HIV replication compared to untreated control; for anti-HIV activity in activated T cells (in words): SPPs 10 μM, compared with HU 100 μM, HU+ddI or untreated control; for Antiviral activity in activated cells: class symbol, Table 6; for HIV activated cells (% p24 compared to not treated control): 7 days, SPPs and Imatinib 10 μM, HU 100 μM, ddI 2 μM
Experimental: The experimental setup described below allows us to detect direct antiviral activity of a compound.
Human PBMC, obtained from healthy, normal donors, were stimulated for two days with PHA 5 μg/ml. Then cells were infected with HIV-1 NL 4.3, IL-2 was added (20 U/ml), cells were plated (10^5 cells per well in 200 μl) and drug treatment started. […] The control was left untreated. After 7 days of incubation at 37° C. supernatants were harvested and HIV-1 p24 Ag was measured by ELISA.

[4] = tested on: Human peripheral blood mononuclear cells (PBMC); conditions: 7 days
[5] = tested on: primary human CD4 T-lymphocytes; assay: Apoptosis in primary CD4 T cells (Annexin V and 7-AAD staining); assay type: cell-based; conditions: for apoptotic effect (in words) / apoptosis %: SPPs 10 μM; for apoptotic effect (in words): compared with HU 100 μM, HU+ddI or untreated control; for apoptosis %: total apoptotic events compared to untreated control, day 10, Imatinib 10 μM, HU 100 μM, ddI 2 μM
Experimental: as §1
We determined the capacity of the compounds to affect the percentages of apoptotic events after 10 days of treatment in primary CD4 T cells.

[6] = % of not treated control (100%), SPPs 10 μM, Imatinib 10 μM, HU 100 μM, HU 100 μM+ddI 2 μM

Row | Structure (SMILES) | inhibition at 10 µM (HIV-1 NL 4.3 [1]; quiescent cells, 10 μM) [%] | anti-HIV activity in quiescent cells (in words) (HIV-1 NL 4.3 [1]) | Antiviral activity in quiescent cells (HIV-1 NL 4.3 [1]) | anti-proliferative activity (in words) [2] | Anti-proliferative capacity [2] | inhibition at 10 µM (HIV-1 NL 4.3 [3]; activated T cells, 10 μM) [%] | anti-HIV activity in activated T cells (in words) (HIV-1 NL 4.3 [3]) | Antiviral activity in activated cells (HIV-1 NL 4.3 [3]) | % viability ([4]; human, 10 μM) [%] | apoptotic effect (in words) [5] | inhibition at 10 µM (HIV-1 NL 4.3 [1]) [%] | more anti-proliferative than HU+ddI [2] | decrease/inhibition of cell proliferation compared to not treated control [2] [%] | inhibition at 10 µM (HIV-1 NL 4.3 [3]) [%] | HIV quiescent cells (percentage p24 compared to the untreated control) (HIV-1 NL 4.3 [1]) [%] | mitotic index % [2] [%] | HIV activated cells (% p24 compared to not treated control) (HIV-1 NL 4.3 [3]; activated T cells) [%] | % viability [4, 6] [%] | apoptosis % [5] [%] | increase in apoptotic events compared to the control ([5]; 10 μM, 10 days) [%]
1 | CSc1nc(NCc2ccccc2)c2cnn(CC(Cl)c3ccccc3)c2n1 (centres unmarked) [VS1-003, 1-(2-chloro-2-phenylethyl)-6-(methylthio)-N-benzyl-1H-pyrazolo[3,4-d]pyrimidin-4-amine] | 95 | about as effective as VS1-002 | +++ (excellent (+++, greater than 70% activity)) | slightly less potent; also recorded: little inferior anti-proliferative capacity compared to HU; also recorded: somewhat less than that of VS1-002 | ++ (good (++, 50 to 70% activity)) | 76 | slightly less potent; also recorded: slightly inferior anti-HIV capacity; also recorded: about as effective as VS1-002 | +++ (excellent (+++, greater than 70% activity)) | 103.4 ± 4.0 | no effect on apoptosis; also recorded: did not affect the percentage of apoptotic events; also recorded: did not induce apoptosis | – | – | – | – | – | – | – | – | – | –
2 | CSc1nc(NCCc2ccccc2)c2cnn(CC(Cl)c3ccccc3)c2n1 (centres unmarked) [VS1-004, 1-(2-chloro-2-phenylethyl)-6-(methylthio)-N-(2-phenylethyl)-1H-pyrazolo[3,4-d]pyrimidin-4-amine] | 93 | good antiviral potency; also recorded: as effective as HU+ddI | +++ (excellent (+++, greater than 70% activity)) | as anti-proliferative as 100 μM HU; also recorded: as effective as HU+ddI; also recorded: as effective as 100 μM HU | +++ (excellent (+++, greater than 70% activity)) | 88 | good antiviral potency; also recorded: as effective as HU+ddI | +++ (excellent (+++, greater than 70% activity)) | 74.9 ± 13.8 | only induced a small apoptotic effect; also recorded: same level; also recorded: slight increase | – | – | – | – | – | – | – | – | – | –
3 | Fc1ccc(CNc2ncnc3c2cnn3CC(Cl)c2ccc(Cl)cc2)cc1 (centres unmarked) [VS1-029, 1-[2-chloro-2-(4-chlorophenyl)ethyl]-N-(4-fluorobenzyl)-1H-pyrazolo[3,4-d]pyrimidin-4-amine] | – | good anti-HIV activity | +++ (excellent (+++, greater than 70% activity)) | good anti-proliferative capacity (superior to 100 μM HU) | +++ (excellent (+++, greater than 70% activity)) | – | good anti-HIV activity | +++ (excellent (+++, greater than 70% activity)) | 96.8 ± 4.5 | no more apoptotic than HU; also recorded: slight increase | 94 | about 20% | 95 | 88 | – | – | – | – | – | –
4 | CCOCCNc1nc(SC)nc2c1cnn2CC(Cl)c1ccccc1 (centres unmarked) [VS1-033] | – | – | – | comparable or even greater than HU | – | – | – | – | – | – | – | – | – | – | 15.0 ± 3.0 | 15.4 ± 6.7 | 57.1 ± 10.2 | 108.1 ± 3.5 | 138.6 ± 49.7 | –
5 | ClC(Cn1ncc2c(NCc3ccccc3)ncnc21)c1ccccc1 (centres unmarked) [VS1-010, N-benzyl-1-(2-chloro-2-phenylethyl)-1H-pyrazolo[3,4-d]pyrimidin-4-amine] | 89 | active as antivirals; also recorded: good activity against HIV | – | increased anti-proliferative capacity compared to 100 μM HU | – | 88 | active as antivirals; also recorded: good activity against HIV | – | 40.9 ± 35.8 | induced apoptosis; also recorded: more proapoptotic; also recorded: slight increase | – | 20% | 99 | – | – | – | – | – | – | –
6 | CSc1nc(Nc2cccc(Cl)c2)c2cnn(CC(Cl)c3ccccc3)c2n1 (centres unmarked) [VS1-011, N-(3-chlorophenyl)-1-(2-chloro-2-phenylethyl)-6-(methylthio)-1H-pyrazolo[3,4-d]pyrimidin-4-amine] | 80 | active as antivirals | – | increased anti-proliferative capacity compared to 100 μM HU | – | 85 | active as antivirals | – | 70.4 ± 16.9 | induced apoptosis; also recorded: extremely proapoptotic; also recorded: strongly proapoptotic | – | – | 100 | – | – | – | – | – | – | 182
7 | CCN(CC)c1nc(SC)nc2c1cnn2CC(Cl)c1ccccc1 (centres unmarked) [VS1-032] | – | – | – | comparable or even greater than HU | – | – | – | – | – | – | – | – | – | – | 19.7 ± 7.2 | 22.0 ± 14.5 | 59.3 ± 8.1 | 99.1 ± 3.7 | 131.8 ± 58.6 | –
8 | CCCCNc1ncnc2c1cnn2C=Cc1ccccc1 [VS1-021] | – | – | – | poor activity | – | – | poor activity | – | – | – | – | – | – | – | 115.4 ± 40.4 | 86.2 ± 13.7 | 97.2 ± 30.3 | – | 108.0 ± 21.7 | –
9 | CSc1nc(N2CCOCC2)c2cnn(CC(Cl)c3ccccc3)c2n1 (centres unmarked) [VS1-030] | – | – | – | greater than 100 μM HU and 10 μM Imatinib | – | – | – | – | – | proapoptotic | – | – | – | – | 17.4 ± 10.8 | 15.5 ± 4.8 | 34.5 ± 13.4 | – | 174.4 ± 16.4 | –
